Assay results taken from patent US20220389007A1, “INHIBITORS OF HUMAN IMMUNODEFICIENCY VIRUS REPLICATION” (VIIV HEALTHCARE UK (No. 5) LIMITED, priority 2019, published 2022).
Like-named read-outs stand apart in the source and are kept apart here.

Legend:
Assay type in all cases: cell-based
recombinant NL4-3 virus = assay: HIV cell culture assay (antiviral activity, luciferase readout)
In short: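 MT-2 cells infected for 4-5 days with NL4-3 reference virus carrying Renilla luciferase in place of part of nef, in presence of serial compound dilutions. Luciferase read with live-cell substrate; EC50 from median effect equation fit.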

uninfected MT2 cells = assay: Compound cytotoxicity, XTT-based colorimetric assay; conditions: day 4, XTT assay
In short: (§1)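 Run under the antiviral-assay protocol but without virus. Viability was read on day 4 and CC50 values were derived from the readout.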

[1] = as above; conditions: human; uninfected MT2 cells, day 4, XTT assay
In short: as §1

[2] = MT-2 cells infected for 4-5 days with recombinant NL4-3 virus carrying Renilla luciferase, read-out: EC50
[3] = Human immunodeficiency virus 1, NL43, MT2, MT-2 cells infected for 4-5 days with recombinant NL4-3 virus carrying Renilla luciferase

**Q.** What does the source list for `Cn1nc(NS(C)(=O)=O)c2c(Cl)ccc(-n3c([C@H](Cc4cc(F)cc(F)c4)NC(=O)Cn4nc(C(F)F)c5c4C(F)(F)[C@@H]4C[C@H]54)nc4nc(-c5cnc(C(C)(C)O)s5)ccc4c3=O)c21` [Example 92, N-((S)-1-((3P)-3-(4-chloro-1-methyl-3-(methylsulfonamido)-1H-indazol-7-yl)-7-(2-(2-hydroxypropan-2-yl)thiazol-5-yl)-4-oxo-3,4-dihydropyrido[2,3-d]pyrimidin-2-yl)-2-(3,5-difluorophenyl)ethyl)-2-((3bS,4aR)-3-(difluoromethyl)-5,5-difluoro-3b,4,4a,5-tetrahydro-1H-cyclopropa[3,4]cyclopenta[1,2-c]pyrazol-1-yl)acetamide]?
**A.** EC50 (recombinant NL4-3 virus; [2]): 0.065 nM; CC50 (uninfected MT2 cells): > 100 nM

**Q.** Which EC50 (recombinant NL4-3 virus; [2]) does the source give for `Cn1nc(NS(C)(=O)=O)c2c(Cl)ccc(-n3c([C@H](Cc4cc(F)cc(F)c4)NC(=O)Cn4nc(C(F)F)c5c4C(F)(F)[C@@H]4C[C@H]54)nc4nc(-c5cc(C(F)(F)F)nn5CC(C)(F)F)ccc4c3=O)c21` [Example 95, N-((S)-1-((3P)-3-(4-chloro-1-methyl-3-(methylsulfonamido)-1H-indazol-7-yl)-7-(1-(2,2-difluoropropyl)-3-(trifluoromethyl)-1H-pyrazol-5-yl)-4-oxo-3,4-dihydropyrido[2,3-d]pyrimidin-2-yl)-2-(3,5-difluorophenyl)ethyl)-2-((3bS,4aR)-3-(difluoromethyl)-5,5-difluoro-3b,4,4a,5-tetrahydro-1H-cyclopropa[3,4]cyclopenta[1,2-c]pyrazol-1-yl)acetamide] here?
**A.** Its EC50 is 0.25 nM.

**Q.** And the CC50 (uninfected MT2 cells)?
**A.** Its CC50 is > 100 nM.

**Q.** With `Cn1nc(NS(C)(=O)=O)c2c(Cl)ccc(-n3c([C@H](Cc4cc(F)cc(F)c4)NC(=O)Cn4nc(C(F)F)c5c4C(F)(F)[C@@H]4C[C@H]54)nc4nc(-c5ncccn5)ccc4c3=O)c21` (atropisomer, axis not shown; (P)) [Example 47, N-((S)-1-((3P)-3-(4-chloro-1-methyl-3-(methylsulfonamido)-1H-indazol-7-yl)-4-oxo-7-(pyrimidin-2-yl)-3,4-dihydropyrido[2,3-d]pyrimidin-2-yl)-2-(3,5-difluorophenyl)ethyl)-2-((3bS,4aR)-3-(difluoromethyl)-5,5-difluoro-3b,4,4a,5-tetrahydro-1H-cyclopropa[3,4]cyclopenta[1,2-c]pyrazol-1-yl)acetamide] as the molecule, how does the EC50 (recombinant NL4-3 virus; [3]) read?
**A.** The EC50 was 0.067 nM.

**Q.** And the CC50 at 4 day [1]?
**A.** The CC50 at 4 day was > 100 nM.

**Q.** Which EC50 (recombinant NL4-3 virus; [3]) does the source give for `Cn1nc(NS(C)(=O)=O)c2c(Cl)ccc(-n3c([C@H](Cc4cc(F)cc(F)c4)NC(=O)Cn4nc(C(F)F)c5c4C(F)(F)[C@@H]4C[C@H]54)nc4nc(-c5cc(C(F)(F)F)ncn5)ccc4c3=O)c21` (atropisomer, axis not shown; (P)) [Example 15, N-((S)-1-((3P)-3-(4-chloro-1-methyl-3-(methylsulfonamido)-1H-indazol-7-yl)-4-oxo-7-(6-(trifluoromethyl)pyrimidin-4-yl)-3,4-dihydropyrido[2,3-d]pyrimidin-2-yl)-2-(3,5-difluorophenyl)ethyl)-2-((3bS,4aR)-3-(difluoromethyl)-5,5-difluoro-3b,4,4a,5-tetrahydro-1H-cyclopropa[3,4]cyclopenta[1,2-c]pyrazol-1-yl)acetamide] here?
**A.** Its EC50 is 0.025 nM.

**Q.** And the CC50 at 4 day [1]?
**A.** Its CC50 at 4 day is > 100 nM.

**Q.** Which EC50 (recombinant NL4-3 virus; [3]) does the source give for `Cn1nc(NS(C)(=O)=O)c2c(Cl)ccc(-n3c([C@H](Cc4cc(F)cc(F)c4)NC(=O)Cn4nc(C(F)F)c5c4C(F)(F)[C@@H]4C[C@H]54)nc4nc(-c5ccnn5C5CC5)ccc4c3=O)c21` (atropisomer, axis not shown; (P)) [Example 77, N-((S)-1-((3P)-3-(4-chloro-1-methyl-3-(methylsulfonamido)-1H-indazol-7-yl)-7-(1-cyclopropyl-1H-pyrazol-5-yl)-4-oxo-3,4-dihydropyrido[2,3-d]pyrimidin-2-yl)-2-(3,5-difluorophenyl)ethyl)-2-((3bS,4aR)-3-(difluoromethyl)-5,5-difluoro-3b,4,4a,5-tetrahydro-1H-cyclopropa[3,4]cyclopenta[1,2-c]pyrazol-1-yl)acetamide] here?
**A.** Its EC50 is 0.073 nM.

**Q.** And the CC50 at 4 day [1]?
**A.** Its CC50 at 4 day is > 100 nM.

**Q.** Which EC50 (recombinant NL4-3 virus; [3]) does the source give for `Cn1nc(NS(C)(=O)=O)c2c(Cl)ccc(-n3c([C@H](Cc4cc(F)cc(F)c4)NC(=O)Cn4nc(C(F)F)c5c4C(F)(F)[C@@H]4C[C@H]54)nc4nc(-c5ccc6ocnc6c5)ccc4c3=O)c21` (atropisomer, axis not shown; (P)) [Example 81, N-((S)-1-(7-(benzo[d]oxazol-5-yl)-(3P)-3-(4-chloro-1-methyl-3-(methylsulfonamido)-1H-indazol-7-yl)-4-oxo-3,4-dihydropyrido[2,3-d]pyrimidin-2-yl)-2-(3,5-difluorophenyl)ethyl)-2-((3bS,4aR)-3-(difluoromethyl)-5,5-difluoro-3b,4,4a,5-tetrahydro-1H-cyclopropa[3,4]cyclopenta[1,2-c]pyrazol-1-yl)acetamide] here?
**A.** Its EC50 is 0.082 nM.

**Q.** And the CC50 at 4 day [1]?
**A.** The CC50 at 4 day was > 100 nM.

**Q.** For `COc1cc(-c2ccc3c(=O)n(-c4ccc(Cl)c5c(NS(C)(=O)=O)nn(C)c45)c([C@H](Cc4cc(F)cc(F)c4)NC(=O)Cn4nc(C(F)F)c5c4C(F)(F)[C@@H]4C[C@H]54)nc3n2)ccn1` (atropisomer, axis not shown; (P)) [Example 59, N-((S)-1-((3P)-3-(4-chloro-1-methyl-3-(methylsulfonamido)-1H-indazol-7-yl)-7-(2-methoxypyridin-4-yl)-4-oxo-3,4-dihydropyrido[2,3-d]pyrimidin-2-yl)-2-(3,5-difluorophenyl)ethyl)-2-((3bS,4aR)-3-(difluoromethyl)-5,5-difluoro-3b,4,4a,5-tetrahydro-1H-cyclopropa[3,4]cyclopenta[1,2-c]pyrazol-1-yl)acetamide], which EC50 (recombinant NL4-3 virus; [3]) is on record?
**A.** Its EC50 is 0.05 nM.

**Q.** And the CC50 at 4 day [1]?
**A.** The CC50 at 4 day was > 100 nM.

**Q.** With `Cn1nc(NS(C)(=O)=O)c2c(Cl)ccc(-n3c([C@H](Cc4cc(F)cc(F)c4)NC(=O)Cn4nc(C(F)F)c5c4C(F)(F)[C@@H]4C[C@H]54)nc4nc(-c5ccccc5C(F)(F)F)ccc4c3=O)c21` (atropisomer, axis not shown; (P)) [Example 25, N-((S)-1-((3P)-3-(4-chloro-1-methyl-3-(methylsulfonamido)-1H-indazol-7-yl)-4-oxo-7-(2-(trifluoromethyl)phenyl)-3,4-dihydropyrido[2,3-d]pyrimidin-2-yl)-2-(3,5-difluorophenyl)ethyl)-2-((3bS,4aR)-3-(difluoromethyl)-5,5-difluoro-3b,4,4a,5-tetrahydro-1H-cyclopropa[3,4]cyclopenta[1,2-c]pyrazol-1-yl)acetamide] as the molecule, how does the EC50 (recombinant NL4-3 virus; [3]) read?
**A.** The EC50 was 0.06 nM.

**Q.** What about the CC50 at 4 day [1] of the same molecule?
**A.** Its CC50 at 4 day is > 100 nM.

**Q.** For `Cn1nc(NS(C)(=O)=O)c2c(Cl)ccc(-n3c([C@H](Cc4cc(F)cc(F)c4)NC(=O)Cn4nc(C(F)F)c5c4C(F)(F)[C@@H]4C[C@H]54)nc4nc(-c5csc(S(C)(=O)=O)n5)ccc4c3=O)c21` [Example 93, N-((S)-1-((3P)-3-(4-chloro-1-methyl-3-(methylsulfonamido)-1H-indazol-7-yl)-7-(2-(methylsulfonyl)thiazol-4-yl)-4-oxo-3,4-dihydropyrido[2,3-d]pyrimidin-2-yl)-2-(3,5-difluorophenyl)ethyl)-2-((3bS,4aR)-3-(difluoromethyl)-5,5-difluoro-3b,4,4a,5-tetrahydro-1H-cyclopropa[3,4]cyclopenta[1,2-c]pyrazol-1-yl)acetamide], which EC50 (recombinant NL4-3 virus; [2]) is on record?
**A.** The EC50 was 0.056 nM.

**Q.** And the CC50 (uninfected MT2 cells)?
**A.** The CC50 was > 100 nM.

**Q.** What does the source list for `Cn1nc(NS(C)(=O)=O)c2c(Cl)ccc(-n3c([C@H](Cc4cc(F)cc(F)c4)NC(=O)Cn4nc(C(F)F)c5c4C(F)(F)[C@@H]4C[C@H]54)nc4nc(-c5ccc(S(C)(=O)=O)cc5F)ccc4c3=O)c21` (atropisomer, axis not shown; (P)) [Example 32, N-((S)-1-((3P)-3-(4-chloro-1-methyl-3-(methylsulfonamido)-1H-indazol-7-yl)-7-(2-fluoro-4-(methylsulfonyl)phenyl)-4-oxo-3,4-dihydropyrido[2,3-d]pyrimidin-2-yl)-2-(3,5-difluorophenyl)ethyl)-2-((3bS,4aR)-3-(difluoromethyl)-5,5-difluoro-3b,4,4a,5-tetrahydro-1H-cyclopropa[3,4]cyclopenta[1,2-c]pyrazol-1-yl)acetamide]?
**A.** EC50 (recombinant NL4-3 virus; [3]): 0.075 nM; CC50 at 4 day [1]: > 100 nM
